In EP4570805A1, “TRICYCLIC COMPOUNDS AND MEDICAL USE THEREOF” (Chia Tai Tianqing Pharmaceutical Group Co., Ltd., priority 2022, dated 2024):
Like-named read-outs stand apart in the source and are kept apart here.

Tests used:
His-KRAS G12D (1-169) = biological target: T1, His-KRAS G12D (1-169) (Homo sapiens, UniProt P01116, G12D); test: Nucleotide exchange assay (SOS1cat-mediated, HTRF); assay type: biochemical; details: room temperature, read-out: Nucleotide exchange inhibitory activity IC50
T1 construct: His-KRAS G12D (1-169)
T1 sequence (P01116 1-169 isoform P01116-2 G12D): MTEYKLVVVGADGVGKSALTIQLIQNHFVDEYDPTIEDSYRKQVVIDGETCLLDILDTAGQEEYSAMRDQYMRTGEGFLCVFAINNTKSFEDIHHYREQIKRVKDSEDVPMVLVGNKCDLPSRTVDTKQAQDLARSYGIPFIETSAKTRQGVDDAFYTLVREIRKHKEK
Procedure: • 1. Reagents: His-KRAS G12D (1-169); SOS1^cat (564-1049); GDP (purchased from Sigma); Anti-6HIS-Cryptate (purchased from Cisbio); EDA-GTP-DY-647P1 (purchased from Jena Bioscience) • 2. Buffer preparation: • 1) assay buffer: HEPES pH 7.4, NaCl, MgCl2, DTT, BSA, and Igepal; • 2) KRAS G12D working solution: A KRAS G12D working solution containing 100 nM His-KRAS G12D and 2 nM Anti-6HIS-Cryptate was prepared using the assay buffer; • 3) SOS1^cat working solution: An SOS1^cat working solution containing 20 nM SOS1^cat and 200 nM EDA-GTP-DY-647P1 was prepared using the assay buffer; • 4) blank control working solution: A blank control solution containing 2 nM Anti-6HIS-Cryptate was prepared using the assay buffer. • 3. Testing procedure: The entire experimental process was completed at room temperature. Using a black clear-bottom 384-well plate, 5 µL of KRAS G12D working solution was added to each well for the experimental and negative groups, while 5 µL of blank control working solution was added to each well for the blank group. The plate was incubated at room temperature for 10 min. Then, the compounds (at an initial concentration of 100 µM, 8 concentration gradients by 1:2 serial dilution) were added to the experimental groups using an ultra microsyringe and incubated at room temperature for 30 min. Finally, 5 µL of SOS1^cat working solution was added to each well, and after incubation at room temperature for 15 min, signal values were detected at 665 nm/620 nm using a PerkinElmer Envision HTS multi-label plate reader. The inhibition rate was calculated by the following formula: inhibition rate (%) = (mean value of negative control group - mean value of experimental group)/(mean value of negative control group - mean value of blank group) × 100%. The curves were fitted using the four-parameter logistic model with the logarithm of the compound concentration as the abscissa and the inhibition rate as the ordinate, and IC 50 values were calculated.

Capan-1 cells = test: Inhibitory activity for Capan-1 cell proliferation (CCK-8); assay type: cell-based; details: Homo sapiens, CAPAN-1, 120 h, 5 days incubation
Procedure: Capan-1 cells in a well-growing state were collected into a centrifuge tube, adjusted to a cell density of 1.5 × 10^4 cells/mL, and inoculated onto a 96-well plate (100 µL/well). […] Meanwhile, a control was set. After 5 days of incubation in the cell incubator, the assay reagent CCK-8 (manufacturer: Dojindo Laboratories, Beijing; 10 µL/well) was added. After 4 h of incubation in the cell incubator, the absorbance was measured at 450 nm on a PerkinElmer Envision microplate reader. A four-parameter analysis was performed, a dose-response curve was fitted, and IC50 was calculated.

[1] = microsomes, 1 h
Procedure: (§1) Liver microsome incubation samples (species: human, monkey, rat, and mouse) were prepared by mixing a PBS buffer (pH 7.4), a liver microsome solution (0.5 mg/mL), a test compound, and an NADPH + MgCl2 solution and incubated at 37 °C and 300 rpm for 1 h. Zero-hour samples were prepared by mixing a PBS buffer (pH 7.4), a liver microsome solution (0.5 mg/mL), and a test compound. An acetonitrile solution containing an internal standard was added to the samples, and the supernatants were prepared by protein precipitation, diluted, and then assayed by LC/MS/MS.

[2] = In vitro liver microsomal stability, mouse; details: mouse liver microsome 0.5 mg/mL, 37 °C
Procedure: as §1

AsPc-1 cells = test: Inhibitory activity for AsPc-1 cell proliferation (CCK-8); assay type: cell-based, human; details: Homo sapiens, ASPC1, 72 h incubation
Procedure: AsPc-1 cells in a well-growing state were collected into a centrifuge tube, adjusted to a cell density of 3 × 10^4 cells/mL, and inoculated onto a 96-well plate (100 µL/well). The compounds were added using a nanoliter pipettor such that the final concentrations of the compounds were 5000 nM-0.31 nM (the addition was performed in duplicate). Meanwhile, a control was set. After 72 h of incubation in the cell incubator, the assay reagent CCK-8 (manufacturer: Dojindo Laboratories; 10 µL/well) was added. After 3 h of incubation in the cell incubator, the absorbance was measured at 450 nm on a PerkinElmer Envision microplate reader. A four-parameter analysis was performed, a dose-response curve was fitted, and IC50 was calculated.

[3] = In vivo pharmacokinetics in mice; details: mouse, in vivo, po, ICR mice, IG, 10 mg/kg; for MRT last: read-out: MRT(0-t)
Procedure: ICR mice weighing 20 g to 24 g were randomized into groups with 9 mice in each group after 3 to 5 days of acclimatization, and intragastric administration of the experimental compounds was performed at a dose of 10 mg/kg.
The test animals (ICR mice) were fasted for 12 h before administration and fed 4 h after administration, and were given free access to water before, after, and during the experiment.
After intragastric administration, about 0.1 mL of blood was collected via the orbital sinus at 0.25 h (15 min), 0.5 h (30 min), 1 h, 2 h, 4 h, 6 h, 8 h, and 10 h (each mouse was subjected to blood collection at 3 to 4 time points, with 3 mice per time point). Following anticoagulation with EDTA-K2, the blood samples were transferred to a centrifuge within 30 min and then centrifuged at 4000 rpm for 10 min at 4 °C to separate the plasma. All the plasma samples were collected and immediately stored at -20 °C for testing.
20 µL of the plasma sample to be tested and the standard curve sample were pipetted, and 400 µL of acetonitrile solution containing an internal standard (20 ng/mL) was added. The mixture was shaken and mixed well for 10 min, and centrifuged at 13000 rpm for 10 min. 50 µL of the supernatant was taken and diluted with 100 µL of ultrapure water. After being mixed well, 0.5 µL of the resulting sample was subjected to LC/MS/MS, and a chromatogram was recorded.
Oral exposure of the compounds of the present disclosure was evaluated by in vivo pharmacokinetic experiments in mice.

| Structure (SMILES) | IC50 (His-KRAS G12D (1-169)) | IC50 (Capan-1 cells) | also measured |
| --- | --- | --- | --- |
| C#Cc1c(F)ccc2cc(O)cc(-c3nc4c5c(nc(OC[C@@]67CCCN6C[C@H](F)C7)nc5c3F)N([C@H]3C[C@@H]3N)CCO4)c12 [Example 16] | ≤ 100 nM | – | – |
| C#Cc1c(F)ccc2cc(O)cc(-c3nc4c5c(nc(OCC67CCCN6CC(F)C7)nc5c3F)N(C3CCC(N(C)C)C3)CCO4)c12 (centres unmarked) [Example 23] | 100 to 500 nM | – | – |
| C#Cc1c(F)ccc2cc(O)cc(-c3nc4c5c(nc(OCCN6CCC6)nc5c3F)N(C(C)c3cccnc3N)[C@@H](C)CO4)c12 (single isomer, unassigned) [Example 134] | – | < 100 nM | The remaining amount % (T = 60 min) (0.5 mg/mL) Mouse liver microsome [1]: >60% |
| C#Cc1c(F)ccc2cc(O)cc(-c3nc4c5c(nc(OC[C@@]67CCCN6C[C@H](F)C7)nc5c3F)N(C3CC(N)C3)CCO4)c12 (some centres unmarked) [Example 17] | ≤ 100 nM | – | – |
| C#Cc1c(F)ccc2cc(O)cc(-c3nc4c5c(nc(OCCN(C)C)nc5c3F)N(C(C)c3cccnc3N)[C@@H](C)CO4)c12 (single isomer, unassigned) [Example 95] | – | < 100 nM | The remaining amount % (T = 60 min) (0.5 mg/mL) Mouse liver microsome [2]: >60% |
| C#Cc1c(F)ccc2cc(O)cc(-c3nc4c5c(nc(OC[C@@]67CCCN6C[C@H](F)C7)nc5c3F)N(C3CCCC3)CCO4)c12 [Example 7] | ≤ 100 nM | – | – |
| C#Cc1c(F)ccc2cc(O)cc(-c3nc4c5c(nc(OCC67CCCN6CC(F)C7)nc5c3F)N(CC3(N(C)C)CC3)CCO4)c12 (centres unmarked) [Example 22] | ≤ 100 nM | – | – |
| C#Cc1c(F)ccc2cc(O)cc(-c3nc4c5c(nc(OC[C@@]67CCCN6C[C@H](F)C7)nc5c3F)NCCO4)c12 [Example 1] | ≤ 100 nM | – | – |
| C#Cc1c(F)ccc2cc(O)cc(-c3nc4c5c(nc(OC[C@@]67CCCN6C[C@H](F)C7)nc5c3F)N(CC(F)(F)F)CCO4)c12 [Example 8] | ≤ 100 nM | 100 to 500 nM | IC50 (AsPc-1 cells): 500 to 999 nM |
| C#Cc1c(F)ccc2cc(O)cc(-c3nc4c5c(nc(OC[C@@]67CCCN6C[C@H](F)C7)nc5c3F)N(C[C@H](C)N(C)C)CCO4)c12 [Example 25] | ≤ 100 nM | – | – |
| C#Cc1c(F)ccc2cc(O)cc(-c3nc4c5c(nc(OC[C@@H]6CCN(C)C6)nc5c3F)N(C(C)c3cccnc3N)[C@@H](C)CO4)c12 (single isomer, unassigned) [Example 101] | – | < 100 nM | The remaining amount % (T = 60 min) (0.5 mg/mL) Mouse liver microsome [2]: >60% |
| C#Cc1c(F)ccc2cc(O)cc(-c3nc4c5c(nc(OCC67CCCN6CC(F)C7)nc5c3F)N(CC(C)N)CCO4)c12 (centres unmarked) [Example 14] | ≤ 100 nM | – | – |
| C#Cc1c(F)ccc2cc(O)cc(-c3nc4c5c(nc(OCCCN6CCNCC6)nc5c3F)N(C(C)c3cccnc3N)[C@@H](C)CO4)c12 (single isomer, unassigned) [Example 140] | – | < 100 nM | The remaining amount % (T = 60 min) (0.5 mg/mL) Mouse liver microsome [1]: >60% |
| C#Cc1c(F)ccc2cc(O)cc(-c3nc4c5c(nc(OCC67CCCN6CC(F)C7)nc5c3F)N(CCN(C)C)CCO4)c12 (centres unmarked) [Example 2] | ≤ 100 nM | – | – |
| Cc1c(F)cc2[nH]ncc2c1-c1nc2c3c(nc(OC[C@@]45CCCN4C[C@H](F)C5)nc3c1F)N(C(C)c1cccnc1N)[C@@H](C)CO2 (single isomer, unassigned) [Example 85] | – | < 100 nM | AUC(0-inf) [3]: 214 ng·h/mL; AUC(0-t) [3]: 197 ng·h/mL; Cmax [3]: 50.2 ng/mL; Tmax [3]: 0.25 h; half-life [3]: 2.77 h; MRT last [3]: 3.4 h |
| C#Cc1c(F)ccc2cc(O)cc(-c3nc4c5c(nc(OCC67CCCN6CC(F)C7)nc5c3F)N(CC(C)N)CCO4)c12 (centres unmarked) [Example 13] | ≤ 100 nM | – | – |
| C#Cc1c(F)ccc2cc(O)cc(-c3nc4c5c(nc(OC[C@@]67CCCN6C[C@H](F)C7)nc5c3F)N(C[C@@H](C)N(C)C)CCO4)c12 [Example 24] | ≤ 100 nM | – | – |
| C#Cc1c(F)ccc2cc(O)cc(-c3nc4c5c(nc(OC[C@H](C)N(C)C)nc5c3F)N(C(C)c3cccnc3N)[C@@H](C)CO4)c12 (single isomer, unassigned) [Example 111] | – | < 100 nM | The remaining amount % (T = 60 min) (0.5 mg/mL) Mouse liver microsome [1]: >60% |
| C#Cc1c(F)ccc2cc(O)cc(-c3nc4c5c(nc(O[C@H]6CCN(C)C6)nc5c3F)N(C(C)c3cccnc3N)[C@@H](C)CO4)c12 (single isomer, unassigned) [Example 103] | – | < 100 nM | The remaining amount % (T = 60 min) (0.5 mg/mL) Mouse liver microsome [2]: >60% |
| C#Cc1c(F)ccc2cc(O)cc(-c3nc4c5c(nc(OCCCN(C)C)nc5c3F)N(C(C)c3cccnc3N)[C@@H](C)CO4)c12 (single isomer, unassigned) [Example 79] | – | < 100 nM | The remaining amount % (T = 60 min) (0.5 mg/mL) Mouse liver microsome [2]: >60% |
| C#Cc1c(F)ccc2cc(O)cc(-c3nc4c5c(nc(OC[C@@]67CCCN6C[C@H](F)C7)nc5c3F)N(C3CC(N(C)C)C3)CCO4)c12 (some centres unmarked) [Example 26] | 100 to 500 nM | – | – |
| C#Cc1c(F)ccc2cc(O)cc(-c3nc4c5c(nc(OCC67CCCN6CC(F)C7)nc5c3F)N(C)CCO4)c12 (centres unmarked) [Example 9] | ≤ 100 nM | – | – |
| C#Cc1c(F)ccc2cc(O)cc(-c3nc4c5c(nc(OCC67CCCN6CC(F)C7)nc5c3F)N(C(C)C)CCO4)c12 (centres unmarked) [Example 4] | ≤ 100 nM | 100 to 500 nM | IC50 (AsPc-1 cells): 500 to 999 nM |
| C#Cc1c(F)ccc2cc(O)cc(-c3nc4c5c(nc(OCC67CCCN6CC(F)C7)nc5c3F)N(C3CCC(N)C3)CCO4)c12 (centres unmarked) [Example 10] | 500 to 999 nM | – | – |
| C#Cc1c(F)ccc2cc(O)cc(-c3nc4c5c(nc(OCC67CCCN6CC(F)C7)nc5c3F)N(C3CCC(O)C3)CCO4)c12 (centres unmarked) [Example 15] | ≤ 100 nM | – | – |
| C#Cc1c(F)ccc2cc(O)cc(-c3nc4c5c(nc(OC[C@@]67CCCN6C[C@H](F)C7)nc5c3F)N(CC3CC3)CCO4)c12 [Example 6] | ≤ 100 nM | – | – |
| C#Cc1c(F)ccc2cccc(-c3nc4c5c(nc(OC[C@@H]6CCCN6C)nc5c3F)N(C(C)c3cccnc3N)[C@@H](C)CO4)c12 (single isomer, unassigned) [Example 87] | – | < 100 nM | AUC(0-inf) [3]: 309 ng·h/mL; AUC(0-t) [3]: 266 ng·h/mL; Cmax [3]: 49 ng/mL; Tmax [3]: 0.25 h; half-life [3]: 3.66 h; MRT last [3]: 4.93 h |
